{"source": "patent US20050004018A1", "about": "“Use of antitumoral compound in cancer therapy” (priority 2001, published 2005)", "key": {"mice": {"tested_on": "mice", "conditions": "single or fractionated dose, intravenous; cited from earlier work"}, "human progenitor cells": {"tested_on": "human progenitor cells", "conditions": "cited from earlier work"}, "cancer patients [1]": {"tested_on": "cancer patients", "conditions": "1-hr intravenous infusion every 3 weeks; cited from earlier work"}, "cancer patients [2]": {"tested_on": "cancer patients", "conditions": "cited from earlier work"}, "cancer patients [3]": {"tested_on": "cancer patients", "conditions": "cited from earlier work", "remark": "listed apart in the source"}, "canine progenitor cells": {"tested_on": "canine progenitor cells", "conditions": "cited from earlier work"}, "cancer patients [4]": {"tested_on": "cancer patients", "assay": "phase II programme, 3 hour every 3 weeks schedule", "format": "in vivo, human", "protocol": "Two schedules (24 hour every 3 weeks and 3 hour every 3 weeks) reached the phase II programme. The phase II programme confirmed the activity against soft tissue sarcoma and ovarian cancer. However, the recommended starting dose for the 3 hour schedule had to be reduced because of serious toxicity. The recommended dose for the 24 hour schedule was 1500 μg /m^2 and the recommended dose for the 3 hour schedule is at present 1300 μg/m^2.\nSerious increases of transaminases (grade 3-4) were more frequent with the 3 hour schedule than with the 24 hour schedule. […] This toxicity has improved with the amendment that reduces the starting dose to 1300 (grade 3 and 4 ALT in 38% and 8.5% of patients), although it would be desirable to reduce it further. Cholestasis is less severe and less frequent observing grade 1, 2 and 3 alkaline phosphatase in 50.4%, 6.5% and 1.7% (leading to an overall 58.6% that compares similarly with 57.7% over 24 hours) of patients. […] An infrequent but important toxicity was the renal toxicity, represented by creatinine abnormalities, that is also higher than in the 24 hour schedule. […]"}, "[5]": {"tested_on": "soft tissue sarcoma cell lines", "conditions": "several soft tissue sarcoma cell lines; cited from earlier work"}, "cancer patients [6]": {"tested_on": "cancer patients", "conditions": "cited from earlier work", "remark": "listed apart in the source"}, "[7]": {"conditions": "% of treatment courses at the RD"}, "[8]": {"conditions": "1 hr infusion days 1-5 every 3 weeks"}, "[9]": {"conditions": "3 hour infusion, worst grade per patient"}, "[10]": {"conditions": "Per patient (3 h), number (percent)"}, "[11]": {"conditions": "starting dose reduced to 1300, % of patients"}}, "note": "Where two headings read alike, the source gives them in different places.", "data": [{"substance": "ecteinascidin 743 [ET-743]", "values": [{"measurement": "toxicity", "setting": "mice", "result": "reversible hematological and hepatic toxicity"}, {"measurement": "sensitivity of progenitor cells", "setting": "human progenitor cells", "result": "equal sensitivity of erythropoid and myeloid cells"}, {"measurement": "maximum tolerated dose (MTD)", "setting": "cancer patients [1]", "result": 1100, "unit": "μg/m^2"}, {"measurement": "MTD", "setting": "cancer patients [2]; 3-hr infusion every 3 weeks", "result": 1800, "unit": "μg/M^2"}, {"measurement": "RD for Phase II studies", "setting": "cancer patients [2]; 3-hr infusion every 3 weeks", "result": 1650, "unit": "μg/M^2"}, {"measurement": "increases of bilirubin G2 or greater", "setting": "cancer patients [2]; [7]", "result": 9, "unit": "%"}, {"measurement": "MTD", "setting": "cancer patients [3]; [8]", "result": 380, "unit": "μg/m^2/day"}, {"measurement": "RD", "setting": "cancer patients [3]; [8]", "result": 325, "unit": "μg/m^2/day"}, {"measurement": "cycles delayed", "setting": "cancer patients [3]; at 325 μg/m^2/day (RD)", "result": 59, "unit": "%"}, {"measurement": "median day of recovery to grade 1 for neutropenia", "setting": "cancer patients [3]; at 325 μg/m^2/day (RD)", "result": 28, "unit": "days"}, {"measurement": "patients who developed DLT", "setting": "cancer patients [3]; at 380 μg/m^2/day (MTD)", "result": 3, "unit": "patients"}, {"measurement": "Reversible grade 3 transaminases, cycles", "setting": "cancer patients [3]; at the recommended dose, % of cycles", "result": 14, "unit": "%"}, {"measurement": "Reversible grade 3 transaminases, patients", "setting": "cancer patients [3]; at the recommended dose, % of patients", "result": 31, "unit": "%"}, {"measurement": "sensitivity of progenitor cells", "setting": "canine progenitor cells", "result": "equal sensitivity of erythropoid and myeloid cells"}, {"measurement": "Alk Phosph, NCI-CTC Grade 1", "setting": "cancer patients [4]; [9]", "result": "115 (50.4) Number of patients (%)"}, {"measurement": "Alk Phosph, NCI-CTC Grade 2", "setting": "cancer patients [4]; [9]", "result": "15 (6.5) Number of patients (%)"}, {"measurement": "Alk Phosph, NCI-CTC Grade 3", "setting": "cancer patients [4]; [9]", "result": "4 (1.7) Number of patients (%)"}, {"measurement": "Alk Phosph, NCI-CTC Grade 4", "setting": "cancer patients [4]; [9]", "result": "2 (0.8) Number of patients (%)"}, {"measurement": "Bilirubin, NCI-CTC Grade 1", "setting": "cancer patients [4]; [9]", "result": "59 (25.8) Number of patients (%)"}, {"measurement": "Bilirubin, NCI-CTC Grade 2", "setting": "cancer patients [4]; [9]", "result": "38 (16.6) Number of patients (%)"}, {"measurement": "Bilirubin, NCI-CTC Grade 3", "setting": "cancer patients [4]; [9]", "result": "6 (2.6) Number of patients (%)"}, {"measurement": "Bilirubin, NCI-CTC Grade 4", "setting": "cancer patients [4]; [9]", "result": "0 ^ Number of patients (%)"}, {"measurement": "Hemoglobin, NCI-CTC Grade 0-1", "setting": "cancer patients [4]; [9]", "result": "132 (55) Number of patients (%)"}, {"measurement": "Hemoglobin, NCI-CTC Grade 2", "setting": "cancer patients [4]; [9]", "result": "80 (33.4) Number of patients (%)"}, {"measurement": "Hemoglobin, NCI-CTC Grade 3", "setting": "cancer patients [4]; [9]", "result": "23 (9.6) Number of patients (%)"}, {"measurement": "Hemoglobin, NCI-CTC Grade 4", "setting": "cancer patients [4]; [9]", "result": "4 (1.6) Number of patients (%)"}, {"measurement": "Neutrophils, NCI-CTC Grade 0-1", "setting": "cancer patients [4]; [9]", "result": "59 (24.5) Number of patients (%)"}, {"measurement": "Neutrophils, NCI-CTC Grade 2", "setting": "cancer patients [4]; [9]", "result": "42 (17.4) Number of patients (%)"}, {"measurement": "Neutrophils, NCI-CTC Grade 3", "setting": "cancer patients [4]; [9]", "result": "57 (23.6) Number of patients (%)"}, {"measurement": "Neutrophils, NCI-CTC Grade 4", "setting": "cancer patients [4]; [9]", "result": "85 (35.2) Number of patients (%)"}, {"measurement": "Platelets, NCI-CTC Grade 0-1", "setting": "cancer patients [4]; [9]", "result": "170 (69.1) Number of patients (%)"}, {"measurement": "Platelets, NCI-CTC Grade 2", "setting": "cancer patients [4]; [9]", "result": "26 (10.6) Number of patients (%)"}, {"measurement": "Platelets, NCI-CTC Grade 3", "setting": "cancer patients [4]; [9]", "result": "31 (12.6) Number of patients (%)"}, {"measurement": "Platelets, NCI-CTC Grade 4", "setting": "cancer patients [4]; [9]", "result": "14 (5.6) Number of patients (%)"}, {"measurement": "SGOT/AST, NCI-CTC Grade 1", "setting": "cancer patients [4]; [9]", "result": "17 (7.2) Number of patients (%)"}, {"measurement": "SGOT/AST, NCI-CTC Grade 2", "setting": "cancer patients [4]; [9]", "result": "29 (12.3) Number of patients (%)"}, {"measurement": "SGOT/AST, NCI-CTC Grade 3", "setting": "cancer patients [4]; [9]", "result": "117 (49.7) Number of patients (%)"}, {"measurement": "SGOT/AST, NCI-CTC Grade 4", "setting": "cancer patients [4]; [9]", "result": "58 (24.6) Number of patients (%)"}, {"measurement": "SGPT/ALT, NCI-CTC Grade 1", "setting": "cancer patients [4]; [9]", "result": "13 (5.5) Number of patients (%)"}, {"measurement": "SGPT/ALT, NCI-CTC Grade 2", "setting": "cancer patients [4]; [9]", "result": "19 (8.1) Number of patients (%)"}, {"measurement": "SGPT/ALT, NCI-CTC Grade 3", "setting": "cancer patients [4]; [9]", "result": "107 (45.7) Number of patients (%)"}, {"measurement": "SGPT/ALT, NCI-CTC Grade 4", "setting": "cancer patients [4]; [9]", "result": "87 (37.1) Number of patients (%)"}, {"measurement": "Increased transaminases (grade 3-4), cycles", "setting": "cancer patients [4]; 3 hour schedule, % of cycles", "result": 58.3, "unit": "%"}, {"measurement": "Grades 1-3 of bilirubin", "setting": "cancer patients [4]; 3 hour schedule, % of patients", "result": 45, "unit": "%"}, {"measurement": "Increased transaminases (grade 3-4), patients", "setting": "cancer patients [4]; 3 hour schedule, % of patients", "result": 83.4, "unit": "%"}, {"measurement": "alkaline phosphatase overall", "setting": "cancer patients [4]; 3 hour schedule, % of patients", "result": 58.6, "unit": "%"}, {"measurement": "grade 1 alkaline phosphatase", "setting": "cancer patients [4]; 3 hour schedule, % of patients", "result": 50.4, "unit": "%"}, {"measurement": "grade 2 alkaline phosphatase", "setting": "cancer patients [4]; 3 hour schedule, % of patients", "result": 6.5, "unit": "%"}, {"measurement": "grade 3 alkaline phosphatase", "setting": "cancer patients [4]; 3 hour schedule, % of patients", "result": 1.7, "unit": "%"}, {"measurement": "recommended dose", "setting": "cancer patients [4]; 3 hour schedule, at present (reduced)", "result": 1300, "unit": "μg/m^2"}, {"measurement": "Grade 3-4 ALT", "setting": "cancer patients [4]; 3 h schedule every three weeks", "result": 82.8, "unit": "%"}, {"measurement": "Grade 3-4 Bilirubin", "setting": "cancer patients [4]; 3 h schedule every three weeks", "result": 2.6, "unit": "%"}, {"measurement": "Grade 3-4 Creatinine", "setting": "cancer patients [4]; 3 h schedule every three weeks", "result": 2.3, "unit": "%"}, {"measurement": "Grade 3-4 Creatinine Kinase", "setting": "cancer patients [4]; 3 h schedule every three weeks", "result": 1.5, "unit": "%"}, {"measurement": "Grade 3-4 Hemoglobin", "setting": "cancer patients [4]; 3 h schedule every three weeks", "result": 11.3, "unit": "%"}, {"measurement": "Grade 3-4 Neutrophils", "setting": "cancer patients [4]; 3 h schedule every three weeks", "result": 58.3, "unit": "%"}, {"measurement": "Grade 3-4 Platelets", "setting": "cancer patients [4]; 3 h schedule every three weeks", "result": 18.7, "unit": "%"}, {"measurement": "Creatinine abnormalities, NCI-CTC Grade 1", "setting": "cancer patients [4]; [10]", "result": "44 (20.1)"}, {"measurement": "Creatinine abnormalities, NCI-CTC Grade 2", "setting": "cancer patients [4]; [10]", "result": "10 (4.6)"}, {"measurement": "Creatinine abnormalities, NCI-CTC Grade 3", "setting": "cancer patients [4]; [10]", "result": "5 (2.3)"}, {"measurement": "Creatinine abnormalities, NCI-CTC Grade 4", "setting": "cancer patients [4]; [10]", "result": "0 ^"}, {"measurement": "grade 3 ALT", "setting": "cancer patients [4]; [11]", "result": 38, "unit": "%"}, {"measurement": "grade 4 ALT", "setting": "cancer patients [4]; [11]", "result": 8.5, "unit": "%"}, {"measurement": "IC50", "setting": "[5]", "result": "< 1", "unit": "pM"}, {"measurement": "DLT (dose limiting toxicity)", "setting": "cancer patients [6]; 24hr infusion every 3 weeks", "result": "hematotoxicity"}, {"measurement": "MTD (maximum tolerated dose)", "setting": "cancer patients [6]; 24hr infusion every 3 weeks", "result": 1800, "unit": "μg/m^2"}, {"measurement": "RD (recommended dose)", "setting": "cancer patients [6]; 24hr infusion every 3 weeks", "result": 1500, "unit": "μg/m^2"}, {"measurement": "Grade 2 or greater hyperbilirubinemia", "setting": "cancer patients [6]; [7]", "result": 30, "unit": "%"}, {"measurement": "Grade 3 or 4 transaminases, cycles", "setting": "cancer patients [6]; at the RD, % of cycles", "result": 38, "unit": "%"}, {"measurement": "Grade 3 or 4 transaminases, patients", "setting": "cancer patients [6]; at the RD, % of patients", "result": 68, "unit": "%"}]}]}
